Measurements as given in patent US20030232986A1, “Inhibitors of caspases” (Vertex Pharmaceuticals Incorporated, priority 1998, published 2003).
pIC50: −log10 of the molar value. Where a SMILES comes first, the peptide text is derived from it. The star is where a group is joined. Bz = O=C(c1ccccc1)*

Tests used:
[1] = Single pass perfusion in rat: GI wall and liver metabolism, biliary excretion; type: in vitro ADME; details: for f (g) Xf (h): GI wall metabolism f(g) x liver metabolism f(h)
Method: Single pass perfusion studies in rat were performed to assess gastrointestinal (GI) wall metabolism (f(g)), liver metabolism (f(h)), and biliary excretion. The method used has been described in Pang, C. S., J. Pharmacol. Exp. Therapeutics, 333, pp. 788-798 (1984).

[2] = test system: Human whole blood, IL-1β production; test: Whole blood assay for IL-1β production; type: cell-based; details: LPS-stimulated whole blood, IL-1β by ELISA
Method in brief: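 LPS-stimulated (5.0 ng/ml final) human whole blood incubated with test compound in saline (or plasma/PBS-5% DMSO for hydrophobic compounds) at 30° C for 16-18 hr. Plasma IL-1β then measured by ELISA at 1:200 dilution, against no-LPS, no-inhibitor and vehicle controls.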

[3] = test system: Human Peripheral Blood Mononuclear Cells (PBMC), mature IL-1β; test: PBMC cell assay: IL-1β assay with human peripheral blood mononuclear cells; type: cell-based; details: LPS-stimulated human PBMC, mature IL-1β in supernatant by ELISA
Method in brief: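 Donor PBMC (suspension at 6×10^6 cells/ml) or adherent-enriched monocytes were stimulated with 5 ng/ml LPS (final) alongside 5–6 compound dilutions bracketing the ICE Ki, at 0.1% DMSO final, for 16–18 hr at 37° C, 5% CO2. Mature IL-1β in supernatants was measured by ELISA; IC50 was calculated relative to LPS-only controls.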

Biliary Excretion [1] | f (g) Xf (h) [1] | pIC50 [2] | Compound | pIC50 [3]
C (Category “C” indicates >10%) | A (category “A” indicates <0.25) | > 5.60 | CC(C)[C@H](NC(=O)c1nccc2ccccc12)C(=O)N1CCC[C@H]1C(=O)N[C@H](C=O)CC(=O)O [Example 5c] | 6.00 to 6.30
A (category “A” indicates <5%) | D (Category “D” indicates >0.75) | 5.12 to 5.60 | COCC(=O)N1CCN(C(=O)[C@H](C)NC(=O)c2ccc(N)c(Cl)c2)[C@H](C(=O)N[C@H](C=O)CC(=O)O)C1 [Example 18f] | < 5.70
– | – | > 5.60 | CC[C@H](NC(=O)c1cc(Cl)c(O)c(Cl)c1)C(=O)N1CCC[C@H]1C(=O)N[C@H](C=O)CC(=O)O [Example 20m] | 6.00 to 6.30
A (category “A” indicates <5%) | C (Category “C” indicates 0.5-0.75) | 5.12 to 5.60 | CC(C)[C@H](NC(=O)c1ccccc1)C(=O)N1CC(c2ccccc2)[C@H]1C(=O)N[C@H](C=O)CC(=O)O (some centres unmarked) [Example 24a] | 6.00 to 6.30
C (Category “C” indicates >10%) | A (category “A” indicates <0.25) | 5.12 to 5.60 | CC(C)[C@H](NC(=O)c1nccc2ccccc12)C(=O)N1CC(c2ccccc2)[C@H]1C(=O)N[C@H](C=O)CC(=O)O (some centres unmarked) [Example 24c] | > 6.30
C (Category “C” indicates >10%) | A (category “A” indicates <0.25) | 5.12 to 5.60 | CC(C)[C@H](NC(=O)c1nccc2ccccc12)C(=O)N1CC[C@H](C)[C@H]1C(=O)N[C@H](C=O)CC(=O)O [Example 26c] | 6.00 to 6.30
C (Category “C” indicates >10%) | A (category “A” indicates <0.25) | 5.12 to 5.60 | CC(C)[C@H](NC(=O)c1nccc2ccccc12)C(=O)N1[C@@H](c2ccccc2)CC[C@H]1C(=O)N[C@H](C=O)CC(=O)O [Example 26f] | > 6.30
– | – | > 5.60 | CC(C)[C@H](NC(=O)c1ccccc1)C(=O)N[C@@H](C)C(=O)N[C@H](C=O)CC(=O)O [Example 29a] (Bz-Val-Ala-Asp-aldehyde) | > 6.30
B (Category “B” indicates 5-10%) | B (Category “B” indicates 0.25-0.49) | > 5.60 | C[C@H](NC(=O)[C@@H](NC(=O)c1nccc2ccccc12)C(C)(C)C)C(=O)N[C@H](C=O)CC(=O)O [Example 29g] | 6.00 to 6.30
C (Category “C” indicates >10%) | B (Category “B” indicates 0.25-0.49) | 5.12 to 5.60 | COc1ccc(C(=O)NC(C(=O)N2N=C(C(C)(C)C)SC2C(=O)NC(C=O)CC(=O)O)C(C)C)cc1 (centres unmarked) [Example 46b] | < 5.70
C (Category “C” indicates >10%) | B (Category “B” indicates 0.25-0.49) | > 5.60 | Cc1cc(C(=O)N[C@H](C(=O)N2CCCC2C(=O)N[C@H](C=O)CC(=O)O)C(C)C)cc(C)c1O (stereo partly drawn) [Example 65, 3-({l-[2-(4-Hydroxy-3,5-dimethyl-benzoyiamino)-3-methyl-butyryl]-pyrrolidine-2-carbonyl}-amino)-4-oxo-butyric acid] | 6.00 to 6.30
A (category “A” indicates <5%) | C (Category “C” indicates 0.5-0.75) | > 5.60 | C[C@H](NC(=O)c1ccc(N)c(Cl)c1)C(=O)N1CCC[C@H]1C(=O)N[C@H](C=O)CC(=O)O [Example 122b, 3-({-[2-(4-Amino-3-chloro-benzoylamino)-propionyl]-pyrrolidine-2-carbonyl}-amino)-4-oxo-butyric acid] | 6.00 to 6.30
A (category “A” indicates <5%) | C (Category “C” indicates 0.5-0.75) | > 5.60 | COc1c(C)cc(C(=O)N[C@@H](C)C(=O)N2CCC[C@H]2C(=O)N[C@H](C=O)CC(=O)O)cc1C [Example 122d, 3-({1-[2-(4-Methoxy-3,5-dimethyl-benzoylamino)-propionyl]-pyrrolidine-2-carbonyl}-amino)-4-oxo-butyric acid] | 6.00 to 6.30

Continued, molecule first:

Compound | Biliary Excretion [1] | f (g) Xf (h) [1] | pIC50 [2] | pIC50 [3]
CC(C)[C@H](NC(=O)c1cccc2c1-c1ccccc1C2=O)C(=O)N1CCC[C@H]1C(=O)N[C@H](C=O)CC(=O)O [Example 5k] | A (category “A” indicates <5%) | B (Category “B” indicates 0.25-0.49) | 5.12 to 5.60 | < 5.70
CC(C)[C@H](NC(=O)c1cc(Cl)c(O)c(Cl)c1)C(=O)N1CCC[C@H]1C(=O)N[C@H](C=O)CC(=O)O [Example 5m] | C (Category “C” indicates >10%) | B (Category “B” indicates 0.25-0.49) | > 5.60 | > 6.30
Cc1cc(C(=O)N[C@@H](C)C(=O)N2CCC[C@H]2C(=O)N[C@H](C=O)CC(=O)O)cc(C)c1O [Example 7c] | – | – | > 5.60 | > 6.30
C[C@H](NC(=O)c1nccc2ccccc12)C(=O)N1CCC[C@H]1C(=O)N[C@H](C=O)CC(=O)O [Example 7d] | A (category “A” indicates <5%) | D (Category “D” indicates >0.75) | 5.12 to 5.60 | > 6.30
COc1ccc(C(=O)N[C@@H](C)C(=O)N2CCC[C@H]2C(=O)N[C@H](C=O)CC(=O)O)cc1 [Example 7f] | A (category “A” indicates <5%) | C (Category “C” indicates 0.5-0.75) | 5.12 to 5.60 | < 5.70
O=C[C@H](CC(=O)O)NC(=O)[C@@H]1CCCN1C(=O)[C@H](Cc1cccnc1)NC(=O)c1nccc2ccccc12 [Example 20f] | C (Category “C” indicates >10%) | B (Category “B” indicates 0.25-0.49) | > 5.60 | 6.00 to 6.30
CSC[C@H](NC(=O)c1nccc2ccccc12)C(=O)N1CCC[C@H]1C(=O)N[C@H](C=O)CC(=O)O [Example 20g] | A (category “A” indicates <5%) | B (Category “B” indicates 0.25-0.49) | > 5.60 | > 6.30
CS(=O)(=O)CC[C@H](NC(=O)c1nccc2ccccc12)C(=O)N1CCC[C@H]1C(=O)N[C@H](C=O)CC(=O)O [Example 20h] | – | – | > 5.60 | > 6.30
CC(C)[C@H](NC(=O)c1nccc2ccccc12)C(=O)N1C2CCCCC2C[C@H]1C(=O)N[C@H](C=O)CC(=O)O (some centres unmarked) [Example 26e] | B (Category “B” indicates 5-10%) | B (Category “B” indicates 0.25-0.49) | > 5.60 | > 6.30
C[C@H](NC(=O)c1ccc(N)c(Cl)c1)C(=O)N1CC(F)(F)C[C@H]1C(=O)N[C@H](C=O)CC(=O)O [Example 27a] | A (category “A” indicates <5%) | C (Category “C” indicates 0.5-0.75) | > 5.60 | > 6.30
COc1ccc(C(=O)NC(C(=O)N2CCCC2C(=O)NC(C=O)CC(=O)O)C(C)C)cc1 (centres unmarked) [Example 57, 3-({1-[2-(4-Methoxy-benzoylamino)-3-methyl-butyryl]-pyrrolidine-2-carbonyl}-amino)-4-oxo-butyric acid] | B (Category “B” indicates 5-10%) | B (Category “B” indicates 0.25-0.49) | < 5.12 | 6.00 to 6.30
COc1ccc(C(=O)NC(C(=O)N2CCCC2C(=O)NC(C=O)CC(=O)O)C(C)(C)C)cc1 (centres unmarked) [Example 69, 3-({1-[2-(4-Methoxy-benzoylamino)-3,3-dimethyl-butyryl]-pyrrolidine-2-carbonyl}-amino)-4-oxo-butyric acid] | A (category “A” indicates <5%) | C (Category “C” indicates 0.5-0.75) | > 5.60 | > 6.30
C[C@H](NC(=O)c1cccc2c1-c1ccccc1C2=O)C(=O)N1CCC[C@H]1C(=O)N[C@H](C=O)CC(=O)O [Example 122a] | A (category “A” indicates <5%) | B (Category “B” indicates 0.25-0.49) | > 5.60 | < 5.70
COc1c(Cl)cc(C(=O)N[C@@H](C)C(=O)N2CCC[C@H]2C(=O)N[C@H](C=O)CC(=O)O)cc1Cl [Example 122c, 3-({1-[2-(3,5-Dichloro-4-methoxy-benzoylamino)-propionyl]-pyrrolidine-2-carbonyl}-amino)-4-oxo-butyric acid] | B (Category “B” indicates 5-10%) | C (Category “C” indicates 0.5-0.75) | 5.12 to 5.60 | < 5.70
CC(=O)Nc1ccc(C(=O)N[C@@H](C)C(=O)N2CCC[C@H]2C(=O)N[C@H](C=O)CC(=O)O)cc1Cl [Example 122f, 3-({1-[2-(4-Acetylamino-3-chloro-benzoylamino)-propionyl]-pyrrolidine-2-carbonyl}-amino)-4-oxo-butyric acid] | – | – | > 5.60 | 6.00 to 6.30
C[C@H](NC(=O)c1cc(Cl)c(O)c(Cl)c1)C(=O)N1CCC[C@H]1C(=O)N[C@H](C=O)CC(=O)O [Example 122k, 3-({1-[2-(3,5-Dichloro-4-hydroxy-benzoylamino)-propionyl]-pyrrolidine-2-carbonyl}-amino)-4-oxo-butyric acid] | – | – | > 5.60 | > 6.30
